Values of other authors as cited in patent US8293243B2 (priority 2004, dated 2012).
*1 amine or outer side, *2 acyl side, *3 side chain or, on linkers, in order; H or OH if unused. Where a SMILES comes first, the peptide text is derived from it. Bridges are numbered along the chain shown (N, C = ends). Roman numbers before positions name the chains, in order. [ ]: non-standard residue; d: D form. Actinocin(9to1) = Cc1c2oc3c(C)ccc(C(=O)[*:1])c3nc-2c(C(=O)[*:2])c(N)c1=O; NMeV = CN[C@H](C(=O)O)C(C)C; Sar = CNCC(=O)O

Details: in vivo; cited from earlier work

Cc1c2oc3c(C)ccc(C(=O)N[C@@H]4C(=O)N[C@H](C(C)C)C(=O)N5CCC[C@H]5C(=O)N(C)CC(=O)N(C)[C@@H](C(C)C)C(=O)O[C@@H]4C)c3nc-2c(C(=O)N[C@@H]2C(=O)N[C@H](C(C)C)C(=O)N3CCC[C@H]3C(=O)N(C)CC(=O)N(C)[C@@H](C(C)C)C(=O)O[C@@H]2C)c(N)c1=O [Actinomycin D] (I: T[dV]P[Sar][NMeV] / II: T[dV]P[Sar][NMeV]; ester I:1-I:C, II:1-II:C; linker I:N-II:N via Actinocin(9to1))
passage of the blood-brain barrier: does not pass the blood-brain barrier
